Reference: patent US20170100493A1, “RECEPTOR IMAGING SYSTEMS AND RELATED METHODS” (The General Hospital Corporation, priority 2015, published 2017)
Where two headings read alike, the source gives them in different places.

Experiments:
D2/D3 receptors [1] = target: T1, D2/D3 receptors (Macaca mulatta, UniProt F7CYH8); conditions: for DBPND^peak / Peak Occ. θ^peak / BP^(0): putamen ROI, animal M1; for BP^(0): baseline [11C]raclopride binding potential
Experimental: (§1) Two animals (male rhesus macaques: M1 (8 years) and M2 (6 years)) underwent PET/MR imaging. For each study, the animal was anesthetized, initially with 10 mg/kg ketamine and 0.5 mg/kg xylazene, and maintained with isoflurane (1%, mixed with oxygen) after intubation.
(§2) [^11C]Raclopride was injected using a bolus+infusion protocol. […] Boluses were administered by hand over a duration of 30 seconds, after which infusion at a rate of 0.01 ml/s was started with an automatic pump (Medrad Spectra Solaris). Specific activities at time of injection were 3.7±2.8 mCi/nmol. […] Experiments and repeated administration of pharmacological challenges in all NHPs were separated by at least 2 weeks, so that results were not influenced from prior history. […] Additionally, the D2 antagonist prochlorperazine was injected at doses 0.1 and 0.2 mg/kg in animal M2 to serve as a direct comparison to the agonists, and to investigate whether the temporal relationship between occupancy and function that was reported for the short-acting antagonist raclopride (10) was maintained for an antagonist with much longer duration of action.
(§3) Simultaneous PET and MR data were acquired on a prototype scanner that includes a BrainPET insert and a Tim Trio 3T MR scanner (Siemens AG, Healthcare Sector, Erlangen Germany). A custom-built tight-fitting PET compatible 8-channel NHP receive array (34) together with a vendor-supplied local circularly polarized transmit coil was used for MR imaging.
PET emission data were acquired in list-mode format for 100 min starting with radiotracer injection. Images were reconstructed with a 3D Poisson ordered-subset expectation maximization algorithm using prompt and variance-reduced random coincidence events. Normalization, scatter and attenuation sinograms (including attenuation of the radiofrequency coil) were included in the reconstruction (37). […] Framing intervals were 10×30 sec, followed by 1 min frames.
(§4) PET and MR data were registered to the Saleem-Logothetis stereotaxic space (38) with an affine transformation (12 degrees of freedom) using a multi-subject MRI template (39), in which standard regions of interest (ROI) were defined based on anatomy. Alignment of the EPI data used an affine transformation plus local distortion fields. After motion-correcting using AFNI software (40), and after spatially smoothing fMRI data with a 2.5 mm Gaussian kernel, statistical analysis was carried out using the general linear model (GLM). The temporal response to the drug injection was modeled with a gamma-variate function, in which the time-to-peak was adjusted to minimize the χ^2/DOF of the GLM fit to the data. […] Additionally, regressors that correspond to translations in three dimensions and were derived from motion correction were used in the GLM analysis. The resulting signal changes were then converted to percentage changes in CBV by standard methods (41).
PET kinetic modeling employed a general linear model formulation of the simplified reference tissue model (SRTM) (14), with cerebellum as the reference ROI, and the rate constant (k2) for cerebellum derived from the high-binding region putamen using a 2-parameter SRTM model (42).

D2/D3 receptors [2] = target: T1, D2/D3 receptors; conditions: for Peak CBV: putamen ROI, animal M1
Experimental: as §1, §2, §3
The phased array enabled 2-fold acceleration with GRAPPA (35) in the anterior-posterior direction. […] To improve fMRI detection power, ferumoxytol (Feraheme, AMAG Pharmaceuticals, Cambridge Mass.) was injected at 10 mg/kg prior to fMRI (36).
as §4

D3 = conditions: cited from earlier work
D2 = conditions: cited from earlier work
D2/D3 = conditions: reported (ref 19); cited from earlier work
D2/D3 receptors [3] = target: T1, D2/D3 receptors; conditions: mean±std over doses; model fit to experimental data
Experimental: The process of receptor desensitization and internalization can be considered in a dynamic occupancy model. In an example of a dynamic occupancy model, the following are assumed: • i. The externalization constant kext is very long, and is thus negligible for timescales <2 h. • ii. Once internalized, receptors can be bound with an affinity α by the PET radiotracer. […] The rate to convert desensitized to internalized receptors is negligible with respect to the relevant experimental timescales.
The concentrations of the free ligand and free DA can both be normalized to the baseline DA occupancy at time zero, such that f describes the fraction of free concentration (relative to baseline DA). The parameter θint describes the fraction of internalized receptors and kDI denotes the desensitization and internalization rate constant. The above equations, plus the measurement models for PET and fMRI are a full description of the RDI model employed in this study for simulation and parameter estimation.
The RDI model was used to generate a family of CBV curves for RDI rates in the range of 1 min to 30 min. An estimate of the RDI constant for each dataset was then achieved by minimizing the residual norm between the model and data after drug injection.

T1 sequence (F7CYH8 1-443): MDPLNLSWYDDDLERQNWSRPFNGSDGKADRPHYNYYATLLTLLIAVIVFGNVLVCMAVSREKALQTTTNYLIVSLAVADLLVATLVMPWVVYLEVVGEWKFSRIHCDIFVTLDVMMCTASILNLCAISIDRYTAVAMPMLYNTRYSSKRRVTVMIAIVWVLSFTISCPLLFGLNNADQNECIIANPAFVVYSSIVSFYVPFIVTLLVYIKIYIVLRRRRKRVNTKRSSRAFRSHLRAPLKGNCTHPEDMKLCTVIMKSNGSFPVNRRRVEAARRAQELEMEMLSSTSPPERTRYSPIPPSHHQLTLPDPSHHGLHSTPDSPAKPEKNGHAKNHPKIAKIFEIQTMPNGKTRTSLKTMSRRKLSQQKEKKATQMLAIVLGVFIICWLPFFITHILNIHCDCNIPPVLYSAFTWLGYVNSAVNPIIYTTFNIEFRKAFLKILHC

CN1CCN(CCCN2c3ccccc3Sc3ccc(Cl)cc32)CC1 [prochlorperazine]
occupancy at CBV peak magnitude (D2/D3 receptors [1]; animal M2): 88% | CBV and occupancy timecourses compared (D2/D3 receptors [2]; animal M2, FIG. 4 graph (c)): CBV and occupancy timecourses were matched | CBV response peak magnitude (D2/D3 receptors [2]; at 88% occupancy, animal M2): 14.4%

CCCN(CCC)CCc1cccc2c1CC(=O)N2 [ropinirole]
time at which PET occupancy peaked (D2/D3 receptors [1]; animal M2, FIG. 4): 17.8 min | DBPND^peak (D2/D3 receptors [1]; 0.1 mg/kg): 4.7 | Peak Occ. θ^peak (D2/D3 receptors [1]; 0.1 mg/kg): 7% | DBPND^peak (D2/D3 receptors [1]; 0.3 mg/kg): 2.9 | Peak Occ. θ^peak (D2/D3 receptors [1]; 0.3 mg/kg): 49% | BP^(0) (D2/D3 receptors [1]; 0.1 mg/kg session): 5.1 | BP^(0) (D2/D3 receptors [1]; 0.3 mg/kg session): 5.7 | CBV timecourse peak time after the injection (D2/D3 receptors [2]; 0.1 mg/kg, animal M2): 4.0 min | duration of CBV response in caudate (D2/D3 receptors [2]; 0.1 mg/kg, animal M2): 28.5 min | CBV timecourse peak time after the injection (D2/D3 receptors [2]; 0.3 mg/kg, animal M2): 3.4 min | duration of CBV response in caudate (D2/D3 receptors [2]; 0.3 mg/kg, animal M2): 25.0 min | CBV^peak signal (D2/D3 receptors [2]; animal M2, FIG. 4 comparison of agonists): −8.5% | Peak CBV (D2/D3 receptors [2]; 0.1 mg/kg): −6.6% | Peak CBV (D2/D3 receptors [2]; 0.3 mg/kg): −9.7% | Kd (D3): 61 nM | Kd (D2): 970 nM | potency compared to quinpirole (D2/D3): about seven times less potent | 1/kDI, in vivo desensitization and internalization time constant (D2/D3 receptors [3]): 8.5 ± 2.1 min
